Test results as given in paper PMC10538376 (Journal of the American Chemical Society, 2023).

Columns and labels:
[1] = test system: Ac2-L-Lys-D-Ala-D-Lac (33); assay: Model ligand binding, ligand of vancomycin-resistant organisms
[2] = test system: VanA vancomycin-resistant E. faecium (VRE); assay: In vitro antimicrobial activity, VanA VRE; format: cell-based; details: comparator named in value
[3] = test system: methicillin-susceptible S. aureus (MSSA); assay: In vitro antimicrobial activity, MSSA; format: cell-based
[4] = test system: methicillin-resistant S. aureus (MRSA); assay: In vitro antimicrobial activity, MRSA; format: cell-based
[5] = 30 vs CBP-vancomycin, 31 vs G3,CBP-vancomycin

Substance	Ka, binding to model ligand 33 [1] [M⁻¹]	fold less effective binding of 33 than of Ac2-L-Lys-D-Ala-D-Ala [1] [fold]	antimicrobial activity against VanA VRE, result in words [2]	fold improvement of activity relative to 1 [3] [fold]	activity compared with the corresponding vancomycin derivative, in words [3, 5]	fold improvement of activity relative to 1 [4] [fold]	activity compared with the corresponding vancomycin derivative, in words [4, 5]
2e,6e-dichlorovancomycin [Compound 1]	< 470	1000	inactive	–	–	–	–
CBP-tetrachlorovancomycin [Compound 30]	–	–	comparable to CBP-vancomycin	50	indistinguishable	50	indistinguishable
vancomycin [reference compound]	–	–	inactive	–	–	–	–
